Results reported in patent US12202844B2, “MAP4K1 inhibitors” (Blueprint Medicines Corporation, priority 2021, dated 2025).
pEC50, pIC50: −log10 of the molar value. Like-named read-outs stand apart in the source and are kept apart here.

What was measured:
[1] = tested on: Primary T Cell (expanded CD3+ T cells); assay: T cell enhancement of cytokines: IL2 measurement (HTRF) in stimulated expanded CD3+ T cells; format: cell-based, human; conditions: plate-bound anti-CD3 and soluble anti-CD28, 24 h, IL2 by HTRF, read-out: IL-2 Primary T Cell EC50
How it was run: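 Healthy-donor T cells (95-98% CD3+) expanded 10-14 days with IL2 and CD3/CD28 beads, then cryopreserved. 100K cells/well in X-VIVO 10 serum-free medium were stimulated with plate-bound anti-CD3 plus soluble anti-CD28 with compound at various concentrations for 24 h. Secreted IL2 measured by HTRF after 24 h antibody incubation.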

MAP4K1 (HPK1) = target: T1, MAP4K1 (HPK1) (Homo sapiens, UniProt Q92918); assay: Inhibition of MAP4K1 biochemical enzymatic activity (EZReader 2 electrophoretic mobility shift); conditions: HPK1 (Invitrogen), S6K2tide 1.5 μM, 120 min; ATP 26 μM or 1000 μM (not given)
T1 construct: purchased Invitrogen
How it was run: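 Untreated enzyme (0.1-15 nM) was incubated with 1.5 μM fluorescent peptide and 20-1000 μM ATP (apparent Km or 1 mM) in HEPES pH 7.5, MgCl2, DTT, Brij 35 at 25° C. for 60-180 min, with 1% DMSO and a 10-point 4-fold compound series. After an EDTA stop, product/substrate peptide peak ratio was read by mobility shift.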

T1 sequence (Q92918 whole entry): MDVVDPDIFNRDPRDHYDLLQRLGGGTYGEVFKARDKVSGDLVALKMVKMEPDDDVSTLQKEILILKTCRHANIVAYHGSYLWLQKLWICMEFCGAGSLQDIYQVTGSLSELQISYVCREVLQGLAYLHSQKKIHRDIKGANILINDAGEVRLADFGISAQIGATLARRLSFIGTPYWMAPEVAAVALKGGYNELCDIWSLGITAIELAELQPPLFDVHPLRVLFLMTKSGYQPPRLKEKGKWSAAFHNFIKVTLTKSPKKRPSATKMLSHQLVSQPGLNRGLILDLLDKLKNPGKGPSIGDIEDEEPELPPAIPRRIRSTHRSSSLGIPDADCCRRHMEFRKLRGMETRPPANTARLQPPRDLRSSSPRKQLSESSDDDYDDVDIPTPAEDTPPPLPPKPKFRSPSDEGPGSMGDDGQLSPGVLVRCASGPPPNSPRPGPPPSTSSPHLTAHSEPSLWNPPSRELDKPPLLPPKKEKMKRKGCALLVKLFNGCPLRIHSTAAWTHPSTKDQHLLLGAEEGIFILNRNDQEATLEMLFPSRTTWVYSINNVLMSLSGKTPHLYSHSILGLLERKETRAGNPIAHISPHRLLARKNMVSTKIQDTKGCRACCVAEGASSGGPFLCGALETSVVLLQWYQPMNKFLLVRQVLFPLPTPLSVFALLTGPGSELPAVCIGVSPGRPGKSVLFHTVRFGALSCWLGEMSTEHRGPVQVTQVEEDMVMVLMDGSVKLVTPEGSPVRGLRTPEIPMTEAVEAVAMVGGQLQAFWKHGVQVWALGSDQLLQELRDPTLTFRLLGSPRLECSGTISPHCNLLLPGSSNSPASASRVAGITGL

Compound | pEC50 ([1]; Homo sapiens, T-cell, 24 h) | pIC50 (MAP4K1 (HPK1)) | pEC50 [1]
COC[C@@](C)(N)c1cnc(O[C@H]2C[C@H](CS(C)(=O)=O)C2)c2cnc(Nc3ccc4c(n3)[C@@H](C)C(C)(C)OC4=O)cc12 [Compound 139] | 7.13 | 9.44 | –
C[C@@H]1c2nc(Nc3cc4c(C(C)(C)N)cnc(O[C@H]5C[C@H](CS(C)(=O)=O)C5)c4cn3)ccc2C(=O)OC1(C)C (single isomer, unassigned) [Compound 75] | 7.55 | 10.15 | –
C[C@@H]1OC(=O)c2ccc(Nc3cc4c(C(C)(C)N)cnc(O[C@@H](C)C[C@@H]5CCCS5(=O)=O)c4cn3)nc2[C@H]1C (single isomer, unassigned) [Compound 155] | 7.77 | 9.43 | –
C[C@H](C[C@@H](C)S(C)(=O)=O)Oc1ncc(C(C)(C)N)c2cc(Nc3ccc4c(n3)[C@@H](C)C(C)(C)OC4=O)ncc12 [Compound 91] | 7.62 | 9.66 | –
CC[C@@H](N)c1cnc(O[C@H]2C[C@@H](S(C)(=O)=O)C2)c2cnc(Nc3ccc4c(n3)[C@@H](C)C(C)(C)OC4=O)cc12 (single isomer, unassigned) [Compound 176] | 7.16 | 9.64 | –
CC(C)(N)c1cnc(O[C@H]2C[C@@H](S(C)(=O)=O)C2)c2cnc(Nc3ccc4c(n3)C(C)(C)COC4=O)cc12 [Compound 11] | 7.41 | 9.54 | –
C[C@@H]1OC(=O)c2ccc(Nc3cc4c(C(C)(C)N)cnc(OC5CN(S(C)(=O)=O)C5)c4cn3)nc2[C@H]1C [Compound 15] | 7.89 | 10.00 | –
C[C@H](C[C@@H](C)S(C)(=O)=O)Oc1ncc([C@H](N)C2CC2)c2cc(Nc3ccc4c(n3)[C@@H](C)C(C)(C)OC4=O)ncc12 (single isomer, unassigned) [Compound 110] | 7.44 | 9.66 | –
CC[C@@](C)(N)c1cnc(O[C@H](C)CCS(C)(=O)=O)c2cnc(Nc3ccc4c(n3)[C@@H](C)C(C)(C)OC4=O)cc12 [Compound 94] | 7.59 | 9.85 | –
CCS(=O)(=O)[C@H]1C[C@@H](Oc2ncc(C(C)(C)N)c3cc(Nc4ccc5c(n4)[C@@H](C)[C@H](C)OC5=O)ncc23)C1 [Compound 39, (7S,8R)-2-((5-(2-Aminopropan-2-yl)-8-((cis)-3-(ethylsulfonyl)cyclobutoxy)-2,7-naphthyridin-3-yl)amino)-7,8-dimethyl-7,8-dihydro-5H-pyrano[4,3-b]pyridin-5-one] | 7.96 | 9.89 | –
CC[C@@](C)(N)c1cnc(O[C@H](C)C[C@@H](C)S(C)(=O)=O)c2cnc(Nc3ccc4c(n3)C3(CC3)[C@@H](C)OC4=O)cc12 (single isomer, unassigned) [Compound 104] | 8.00 | 9.77 | –
CC[C@@](C)(N)c1cnc(O[C@H](C)CCS(=O)(=O)CC)c2cnc(Nc3ccc4c(n3)[C@@H](C)C(C)(C)OC4=O)cc12 (single isomer, unassigned) [Compound 133] | 7.64 | 9.70 | –
C[C@@H]1c2nc(Nc3cc4c(C(C)(C)N)cnc(O[C@H]5C[C@@H](S(=O)(=O)C6CC6)C5)c4cn3)ccc2C(=O)OC1(C)C [Compound 102] | 7.82 | 9.85 | –
CCS(=O)(=O)CC[C@@H](C)Oc1ncc(C(C)(C)N)c2cc(Nc3ccc4c(n3)[C@@H](C)C(C)(C)OC4=O)ncc12 (single isomer, unassigned) [Compound 99] | – | 9.41 | 7.14
CC[C@@](C)(N)c1cnc(O[C@H](C)CCS(C)(=O)=O)c2cnc(Nc3ccc4c(n3)C3(CC3)C(C)(C)OC4=O)cc12 [Compound 105] | 7.39 | 9.43 | –
C[C@@H]1c2nc(Nc3cc4c(C(N)C5CC5)cnc(O[C@H]5C[C@@H](S(C)(=O)=O)C5)c4cn3)ccc2C(=O)OC1(C)C (single isomer, unassigned) [Compound 62, (R)-2-((5-((S or R)-Amino(cyclopropyl)methyl)-8-(cis-3-(methylsulfonyl)cyclobutoxy)-2,7-naphthyridin-3-yl)amino)-7,7,8-trimethyl-7,8-dihydro-5H-pyrano[4,3-b]pyridin-5-one] | 7.12 | 9.48 | –

More lines, in order of rising pIC50 (MAP4K1 (HPK1)), values ahead:

pEC50 ([1]; Homo sapiens, T-cell, 24 h) | pIC50 (MAP4K1 (HPK1)) | pEC50 [1] | Compound
7.85 | 9.49 | – | CC[C@@](C)(N)c1cnc(O[C@@H]2C[C@H](S(C)(=O)=O)[C@H]2C)c2cnc(Nc3ccc4c(n3)[C@@H](C)[C@H](C)OC4=O)cc12 (single isomer, unassigned) [Compound 150]
7.96 | 9.55 | – | C[C@@H]1OC(=O)c2cc(Nc3cncc4c(OCCCS(C)(=O)=O)ncc(C(C)(C)N)c34)cnc2[C@H]1C [Compound 7]
7.77 | 9.59 | – | C[C@@H]1COC(=O)c2ccc(Nc3cc4c(C(C)(C)N)cnc(O[C@H]5C[C@@H](S(=O)(=O)C6CC6)C5)c4cn3)nc21 (single isomer, unassigned) [Compound 26]
7.46 | 9.59 | – | C[C@@H]1c2nc(Nc3cc4c(C(C)(C)N)cnc(OCCC[S@](C)(=N)=O)c4cn3)ccc2C(=O)OC1(C)C (single isomer, unassigned) [Compound 168]
7.41 | 9.64 | – | COC[C@@](C)(N)c1cnc(O[C@H](C)C[C@@H](C)S(C)(=O)=O)c2cnc(Nc3ccc4c(n3)[C@@H](C)C(C)(C)OC4=O)cc12 [Compound 144]
7.17 | 9.64 | – | CCS(=O)(=O)CC[C@@H](C)Oc1ncc(C(C)(C)N)c2cc(Nc3ccc4c(n3)[C@@H](C)C(C)(C)OC4=O)ncc12 (single isomer, unassigned) [Compound 98]
– | 9.72 | 8.05 | CC[C@@](C)(N)c1cnc(O[C@H](C)CCS(=O)(=O)CC)c2cnc(Nc3ccc4c(n3)[C@@H](C)[C@H](C)OC4=O)cc12 (single isomer, unassigned) [Compound 93]
8.00 | 9.72 | – | C[C@@H]1OC(=O)c2ccc(Nc3cc4c([C@](C)(N)C5CC5)cnc(O[C@H]5C[C@@H](S(C)(=O)=O)C5)c4cn3)nc2[C@H]1C [Compound 60]
7.44 | 9.80 | – | CCS(=O)(=O)[C@H](C)C[C@@H](C)Oc1ncc(C(C)(C)N)c2cc(Nc3ccc4c(n3)[C@@H](C)C(C)(C)OC4=O)ncc12 [Compound 128]
– | 9.80 | 7.37 | CC[C@@](C)(N)c1cnc(O[C@H](C)C[C@@H](C)[S@@](C)(=N)=O)c2cnc(Nc3ccc4c(n3)C(C)(C)[C@@H](C)OC4=O)cc12 (single isomer, unassigned) [Compound 183]
7.82 | 9.82 | – | CC[C@@](C)(N)c1cnc(O[C@H](C)C[C@@H](C)S(C)(=O)=O)c2cnc(Nc3ccc4c(n3)C(C)(C)[C@H](C)OC4=O)cc12 (single isomer, unassigned) [Compound 186]
7.54 | 9.89 | – | CC[C@@](C)(N)c1cnc(O[C@H](C)C[C@@H](C)S(C)(=O)=O)c2cnc(Nc3ccc4c(n3)CC(C)(C)OC4=O)cc12 [Compound 87]
8.05 | 9.89 | – | CC[C@@](C)(N)c1cnc(O[C@H](C)CCS(C)(=O)=O)c2cnc(Nc3ccc4c(n3)[C@@H](C)[C@H](C)OC4=O)cc12 [Compound 52, (7S,8R)-2-((5-((R)-2-Aminobutan-2-yl)-8-(((R)-4-(methylsulfonyl)butan-2-yl)oxy)-2,7-naphthyridin-3-yl)amino)-7,8-dimethyl-7,8-dihydro-5H-pyrano[4,3-b]pyridin-5-one]
7.41 | 9.92 | – | C[C@@H]1c2nc(Nc3cc4c(C(C)(C)N)cnc(OC5CS(=O)(=O)C5)c4cn3)ccc2C(=O)OC1(C)C [Compound 3]
8.00 | 9.92 | – | CC[C@@](C)(N)c1cnc(O[C@H](C)C[C@@H](C)S(=O)(=O)CC)c2cnc(Nc3ccc4c(n3)[C@@H](C)[C@H](C)OC4=O)cc12 [Compound 127, (7S,8R)-2-((5-((R)-2-Aminobutan-2-yl)-8-(((2R,4R)-4-(ethylsulfonyl)pentan-2-yl)oxy)-2,7-naphthyridin-3-yl)amino)-7,8-dimethyl-7,8-dihydro-5H-pyrano[4,3-b]pyridin-5-one]
7.68 | 9.96 | – | CC[C@@](C)(N)c1cnc(O[C@@H](C)CCS(C)(=O)=O)c2cnc(Nc3ccc4c(n3)[C@@H](C)[C@H](C)OC4=O)cc12 [Compound 53]
7.57 | 9.96 | – | C[C@@H]1c2nc(Nc3cc4c(C(C)(C)N)cnc(O[C@H]5C[C@@H](S(=O)(=O)N(C)C)C5)c4cn3)ccc2C(=O)OC1(C)C [Compound 118]
7.57 | 10.00 | – | CCS(=O)(=O)[C@H]1C[C@@H](Oc2ncc([C@](C)(N)COC)c3cc(Nc4ccc5c(n4)[C@@H](C)[C@H](C)OC5=O)ncc23)C1 [Compound 122]
7.82 | 10.10 | – | C[C@@H]1c2nc(Nc3cc4c(C(C)(C)N)ccc(O[C@H]5C[C@@H](S(C)(=O)=O)C5)c4cn3)ccc2C(=O)OC1(C)C [Compound 27]
8.05 | 10.10 | – | CCS(=O)(=O)[C@H]1C[C@@H](Oc2ncc(C(C)(C)N)c3cc(Nc4ccc5c(n4)[C@@H](C)C(C)(C)OC5=O)ncc23)C1 [Compound 80]
7.28 | 10.10 | – | CC[C@@](C)(N)c1cnc(O[C@@H](C)CCS(C)(=O)=O)c2cnc(Nc3ccc4c(n3)[C@@H](C)C(C)(C)OC4=O)cc12 [Compound 95]
